How the values were obtained:
[1] = spinal anesthesia with bupivacaine; cited from earlier work
[2] = cited from earlier work
[3] = reversal of the local anesthesia effect by applying ondansetrone to the same soft tissue area; format: in vivo; details: ondansetrone applied to the same area where local anesthesia is applied; dose according to patient and to type and dosage of local anesthetic
From the text: Invention is about the reversal of the effect of the local anesthetic applied to the soft tissue, in a short time period by applying ondansetrone, which is a 5-hydroxytriptamine (5-HT3) antagonist, to the same area. And it is also about the removal of the problems encountered by local anesthesia.
Anesthesia implementations can be classified as local anesthesia, regional anesthesia and general anesthesia. Local anesthesia is the temporarily blockage of carrying the painful stimulations by nerve tracks. Only the surgery area is anesthetized with the local anesthesia. […] Local anesthesia effect can last from as few hours up to five hours. During that period, the problems that patient has to face because of being effected by local anesthesia are described in detail in the prior art section. The solution of these problems is reversal of the effect of the local anesthesia by the doctor in a short time after finishing the operation. Because of the effects of the local anesthetics can take hours to be removed by their selves. In the studies of mine about reversal of that local anesthesia effect, ondansetrone, which is a 5-hidroksitriptamin (5-HT3) antagonist, is implemented to the same area according to patient's situation (age, weight, sensitivity etc.) and to type and dosage of local anesthetic were local anesthesia is applied. […]

CN1C2CCCC1CC(NC(=O)c1nn(C)c3ccccc13)C2 (stereo not shown) [granisetron]
reversal of the sensorial block [1]: accelerates the reversal of the sensorial block

Cc1nccn1CC1CCc2c(c3ccccc3n2C)C1=O (stereo not shown) [ondansetrone]
regression of the sensorial block level ([2]; subarachnoid anesthesia by lidocaine): accelerates the regression of the sensorial block level
effect on sensorial block level ([2]; subarachnoid anesthesia by ropivacaine): no effect in sensorial block level
reversal of the effect of the local anesthetic [3]: antagonizes the effect of the local anesthetic in a short time (a few minutes)
